From US11109593B2, “Isoxazolin-5-one derivative and herbicide containing same as active ingredient” (HOKKO CHEMICAL INDUSTRY CO., LTD., priority 2017, dated 2021)

Tests used:
Type in all cases: in vivo
southern crabgrass [1] = experiment: Test Example 4: herbicidal effect test by treatment of leave and stem in dry field farming (seven days after seeding); conditions: 120 g/10a active ingredient; emulsion sprayed seven days after seeding; evaluated 14 days after treatment
Method in brief: (§1)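 Weeds were seeded at 20 seeds per species into the top 1 cm of alluvial upland soil in pots, then sprayed 7 days after seeding with water-diluted emulsifiable concentrate at 100 L/10 a, giving 120 g active ingredient/10 a. Duplicate pots; herbicidal rate (%) was 14 days post-treatment, from dry weight versus untreated.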

Echinochloa crus-galli [2] = experiment: as above; conditions: 120 g/10a active ingredient; emulsion sprayed seven days after seeding; evaluated 14 days after treatment
Method in brief: as §1

Chenopodium album [3] = experiment: as above; conditions: 120 g/10a active ingredient; emulsion sprayed seven days after seeding; evaluated 14 days after treatment
Method in brief: as §1

Amaranthus viridis [4] = experiment: as above; conditions: 120 g/10a active ingredient; emulsion sprayed seven days after seeding; evaluated 14 days after treatment
Method in brief: as §1

southern crabgrass [5] = experiment: Test Example 3: herbicidal effect test by treatment of dry field farming soil (one day after seeding); conditions: 120 g/10a active ingredient, evaluated 14 days after treatment
Method in brief: (§2)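 Dry-field alluvium pots; weed seeds incorporated in top 1 cm; soil spray of diluted emulsion 1 d after seeding, 120 g a.i./10 a in 100 L/10 a. Readout: % reduction of dry weight vs untreated, day 14, duplicates.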

Echinochloa crus-galli [6] = experiment: as above; conditions: 120 g/10a active ingredient, evaluated 14 days after treatment
Method in brief: as §2

Chenopodium album [7] = experiment: as above; conditions: 120 g/10a active ingredient, evaluated 14 days after treatment
Method in brief: as §2

Amaranthus viridis [8] = experiment: as above; conditions: 120 g/10a active ingredient, evaluated 14 days after treatment
Method in brief: as §2

[9] = test system: broad leaf weeds (Lindernia pyxidaria and Monochoria vaginalis); experiment: Test Example 2: herbicidal effect test by treatment during growing period in paddy rice cultivation (seven days after seeding); conditions: 120 g/10a active ingredient, assessed 14 days after treatment, dry weight vs untreated area
Method in brief: (§3)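 Post-emergence paddy water application: compounds were formulated as emulsions, diluted and dropped into flooded pots seven days after sowing at a rate equivalent to 120 g per 10 ares. Efficacy was taken as dry-weight reduction relative to untreated controls after 14 days.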

Echinochloa crus-galli [10] = experiment: as above; conditions: 120 g/10a active ingredient, assessed 14 days after treatment, dry weight vs untreated area
Method in brief: as §3

Scirpus juncoides [11] = experiment: as above; conditions: 120 g/10a active ingredient, assessed 14 days after treatment, dry weight vs untreated area
Method in brief: as §3

[12] = test system: broad leaf weeds (Lindernia pyxidaria and Monochoria vaginalis); experiment: Test Example 1: herbicidal effect test by treatment of rice paddy soil (immediately after seeding); conditions: 120 g/10a active ingredient, dry weight vs untreated area, 14 days after treatment
Method in brief: (§4)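 Application occurs immediately after seeding, with diluted emulsion added to paddy water (about 3 cm deep) over puddled, fertilized soil at 120 g active ingredient per 10 ares. Herbicidal rate is calculated from mean dry weight against untreated controls 14 days later.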

Echinochloa crus-galli [13] = experiment: as above; conditions: 120 g/10a active ingredient, dry weight vs untreated area, 14 days after treatment
Method in brief: as §4

Scirpus juncoides [14] = experiment: as above; conditions: 120 g/10a active ingredient, dry weight vs untreated area, 14 days after treatment
Method in brief: as §4

Compound	herbicidal effect (herbicidal rate), southern crabgrass (southern crabgrass [1]) [%]	herbicidal effect (herbicidal rate), Echinochloa crus-galli (Echinochloa crus-galli [2]) [%]	herbicidal effect (herbicidal rate), Chenopodium album (Chenopodium album [3]) [%]	herbicidal effect (herbicidal rate), Amaranthus viridis (Amaranthus viridis [4]) [%]	herbicidal rate, southern crabgrass (southern crabgrass [5]) [%]	herbicidal rate, Echinochloa crus-galli (Echinochloa crus-galli [6]) [%]	herbicidal rate, Chenopodium album (Chenopodium album [7]) [%]	herbicidal rate, Amaranthus viridis (Amaranthus viridis [8]) [%]	Herbicidal rate (%) Lindernia pyxidaria [9] [%]	Herbicidal rate (%) Monochoria vaginalis [9] [%]	Herbicidal rate (%) Echinochloa crus-galli (Echinochloa crus-galli [10]) [%]	Herbicidal rate (%) Scirpus juncoides (Scirpus juncoides [11]) [%]	Herbicidal rate (%) Lindernia pyxidaria [12] [%]	Herbicidal rate (%) Monochoria vaginalis [12] [%]	Herbicidal rate (%) Echinochloa crus-galli (Echinochloa crus-galli [13]) [%]	Herbicidal rate (%) Scirpus juncoides (Scirpus juncoides [14]) [%]
CCC(C)n1oc(=O)c(Cc2ccccc2N(C(=O)OCCOC)S(=O)(=O)C(F)(F)F)c1C (stereo not shown) [Compound 1-731]	90	90	40	40	90	90	90	90	90	90	90	90	90	90	90	90
CSCCn1oc(=O)c(Cc2ccccc2N(S(C)(=O)=O)S(=O)(=O)C(F)(F)F)c1C [Compound 1-900]	90	90	40	40	90	90	90	90	90	90	90	90	90	90	90	90
CCC(C)n1oc(=O)c(Cc2ccccc2N(C(=O)c2ccc(C)cc2)S(=O)(=O)C(F)(F)F)c1C (stereo not shown) [Compound 1-494]	90	90	40	40	90	90	90	90	90	90	90	90	90	90	90	90
COC(=O)N(c1ccccc1Cc1c(C)n(C(C)c2ccccc2)oc1=O)S(=O)(=O)C(F)(F)F (stereo not shown) [Compound 1-598]	90	90	40	40	90	90	90	90	90	90	90	90	90	90	90	90
Cc1c(Cc2ccccc2NS(=O)(=O)C(F)(F)F)c(=O)on1CCC(C)C [Compound 1-115]	40	60	40	40	90	90	100	100	80	80	90	90	90	90	100	90
Cc1c(Cc2ccc(Cl)cc2NS(=O)(=O)C(F)(F)F)c(=O)on1C(C)C [Compound 1-37]	40	90	80	40	40	70	40	0	40	40	40	0	80	40	60	90
C=CCOC(=O)N(c1ccccc1Cc1c(C)n(CCSC)oc1=O)S(=O)(=O)C(F)(F)F [Compound 1-709]	90	90	40	40	90	90	90	90	90	90	90	90	90	90	90	90
COCC(C)n1oc(=O)c(Cc2ccccc2N(C(=O)OC)S(=O)(=O)C(F)(F)F)c1C (stereo not shown) [Compound 1-587]	90	90	40	40	90	90	90	90	90	90	90	90	90	90	90	90
CCC(C)n1oc(=O)c(Cc2ccccc2N(S(C)(=O)=O)S(=O)(=O)C(F)(F)F)c1C (stereo not shown) [Compound 1-890]	90	90	40	40	90	90	90	90	90	90	90	90	90	90	90	90
Cc1c(Cc2ccccc2N(S(=O)(=O)C(F)(F)F)S(=O)(=O)C(F)(F)F)c(=O)on1CCOCC(C)C [Compound 1-1000]	40	60	0	40	80	60	40	40	40	70	90	90	80	90	100	100
